Entries after “also recorded” stand apart in the source; their conditions may differ.
What was measured:
[1] = tested on: human breast tumor cells; experiment: Culture of human breast tumor cells, effect of medium components (Example 1); format: cell-based; conditions: preliminary experiments; compared to Retinol
Protocol: The base WIT cell culture medium contains 0.1 mg/L Calciferol (vitamin D2) and this medium is supplemented with 2-5% fetal bovine serum (FBS) to culture human ovarian carcinoma cells (WIT-OC medium). It was hypothesized that both of these components should be removed from the cell culture medium for the successful culture of human breast cancer cells because FBS contains vitamins and hormones such as vitamin D and androgens. […] Thus, charcoal stripped fetal bovine serum (csFBS) was utilized to culture breast tumor cells because activated carbon removes non-polar material such as lipophilic (lipid-related) materials (virus, certain growth factors, hormones and cytokines) regardless of molecular weight but has little effect on salts, glucose, amino acids, etc. The WIT-OC medium also contained vitamin A acetate (Retinol) which is a weaker form of vitamin A, compared to all-trans-retinoic acid (ATRA).
Thus, in order to formulate a cell culture medium optimized to culture human breast tumor cells, as opposed to ovarian tumors, and other tumors, a WIT cell culture medium was prepared without any vitamin D, vitamin A, or androgens, and this medium was supplemented 100 nM ATRA, and 0.5-2% charcoal stripped fetal bovine serum (csFBS). We refer to this medium as WIT-BC, or WIT-BCe when estrogen is added.

[2] = tested on: breast cancer cell lines (T47D, ZR751, MCF7 and BT474); experiment: Breast cancer cell line proliferation assay with and without AR agonist (FIG. 8), trypan blue/Cellometer count; format: cell-based; conditions: 10 nM with 17 beta-Estradiol (10 nM), phenol-red free DMEM with 5% csFBS, 4 days
Protocol: Four different breast cancer cell lines (T47D, ZR751, MCF7 and BT474) were cultured both with and without AR agonist […]. […] After 3 days, an AR agonist R1881 (10 nM) and 17 beta-Estradiol (10 nM) were added to the media. […] All the conditions were carried out in triplicate and the experiments were repeated at least twice.

Structure (SMILES)	effect on growth/culture of breast tumor cells [1]	effect on breast cancer cell proliferation [2]
CC1=C(/C=C/C(C)=C/C=C/C(C)=C/C(=O)O)C(C)(C)CCC1 [ATRA, all-trans-retinoic acid]	promoting the growth of the breast tumor cells; also recorded: needed for the optimum culture	–
C[C@]1(O)CC[C@H]2[C@@H]3CCC4=CC(=O)CCC4=C3C=C[C@@]21C [R1881, methyltrienolone]	–	inhibitory effect

Source: patent US11332712B2, “Cell culture media and method for culturing breast cancer cells” (UNIVERSITY OF MIAMI, priority 2013, dated 2022)
